Source: patent publication US5424303A, “Substituted aminophosphonate derivatives, process for their preparation and pharmaceutical compositions containing them” (Symphar SA, priority 1992, dated 1995)
Structures can show the parent of a compound that is named as a salt.

Key:
[1] = system: plasma cholesterol; assay: Hypocholesterolemic activity, plasma cholesterol in mice fed test compound in diet; type: in vivo, OF1 strain mice; conditions: for change in vivo at 180 mg/kg/day: Mus musculus, feed or water, 240 h, read-out: Plasma Cholesterol (% Control), 0.1% compound in food, 10 days, ca. 180 mg/kg daily, mouse; for decrease plasma cholesterol by: 0.1% in food
Experimental: A. Hypocholesterolemic activity
Mouse fed a normal diet is a convenient model which was proposed by several authors (P. Olivier et al, Atherosclerosis 70, 107-114, 1988) ,for the screening for hypocholesterolemic drugs. OF1 strain mice (Iffa Credo) weighing between 25 and 35 g were divided into 5 groups of 5 animals each, four groups received the test compounds and the fifth group served as control. The test compounds were dissolved in diethyl ether. The ether solution was added to food to obtain a final concentration of 0.1%. compound in food. Ether was then evaporated at room temperature. The animals were fed for 10 days, the dally food intake corresponds to ca. 180 mg/kg. After an overnight fast, they were sacrificed by decapitation under ether anesthesia. Blood samples were collected using EDTA as anticoagulant.
Plasma cholesterol was measured by an enzymatic test (DIAMED, Morat, Switzerland). The mean values of each group receiving the test or reference compounds were expressed as percent of mean value of the contemporary control.

[2] = system: lipid peroxidation (rat liver homogenate); assay: Antioxidant activity, inhibition of iron induced lipid peroxidation in liver homogenate; type: biochemical, Wistar rat; conditions: FeSO4, 37° C., 2 h; <25 μM where IC50 was not determined
Experimental: The liver of a Wistar rat anesthetized with ether was collected and homogenized in 4 volumes of phosphate buffer (+4° C., pH 7.4) by means of a Potter. After centrifugation at 2000 rpm for 10 min the supernatant obtained was kept at +4° C. Lipid peroxidation was carried out in presence of FeSOhd according to the method described by A. T. Quitaniha et at, Ann.
The mixture contained 1.7 ml phosphate buffer, 0.2 ml homogenate and 0.1 ml of a 2 mM FeSO4 solution. The test compounds were added in a volume of 61 μl of ethanol or DMSO. Oxydation was carried out at 37° C. for 2 h and was stopped by the addition of 20 μl of 2% ethanolic solution of BHT.

| SMILES | change in vivo at 180 mg/kg/day [1] [%] | IC50 [2] [µM] | decrease plasma cholesterol by ([1]; mouse, 10 days) | hypocholesterolemic activity (in words) ([1]; this model (mouse)) | Plasma Cholesterol (% Control) ([1]; 0.1% compound in food, 10 days, ca. 180 mg/kg daily, mouse) |
| --- | --- | --- | --- | --- | --- |
| CCOP(=O)(OCC)C(Nc1nc2ccccc2s1)c1cc(C(C)(C)C)c(O)c(C(C)(C)C)c1 (stereo not drawn) [Compound 44, Diethyl α-(3.5-di-tert-butyl-4-hydroxyphenyl)-N-(2-benzothiazolyl)-aminomethylphosphonate] | -17 | < 25 |  |  |  |
| CCOP(=O)(OCC)C(NCc1ccc2c(c1)OCO2)c1cc(C(C)(C)C)c(O)c(C(C)(C)C)c1 (stereo not drawn) [Compound 38, Diethyl α-(3,5-di-tert-butyl4-hydroxyphenyl)-N-piperonyl-aminomethylphosphonate] | -40 | 4.3 | more than 30% |  |  |
| CCOP(=O)(OCC)C(NCc1ccccc1)c1cc(OC)c(O)c(OC)c1 (stereo not shown) [Compound 71] | 1 | > 25 |  |  |  |
| CCOP(=O)(OCC)C(NCCc1ccccc1)c1cc(C(C)(C)C)c(O)c(C(C)(C)C)c1 (stereo not shown) [Compound 13] | -28 | 4.9 |  |  |  |
| CCOP(=O)(OCC)C(NCCc1ccc(C)cc1)c1cc(C(C)(C)C)c(O)c(C(C)(C)C)c1 (stereo not shown) [Compound 14] | -6 | < 25 |  |  |  |
| CCOP(=O)(OCC)C(NCCc1ccc(Cl)cc1)c1ccc(O)cc1 (stereo not shown) [Compound 76] | -16 | > 25 |  |  |  |
| CCOP(=O)(OCC)C(NC1(c2ccccc2)CCCC1)c1cc(C(C)(C)C)c(O)c(C(C)(C)C)c1 (stereo not drawn) [Compound 45, Diethyl α-(3,5-di-tert-butyl-4-hydroxyphenyl)-N-(1-phenylcyclopentyl)-aminomethylphosphonate] | -14 | < 25 |  |  |  |
| CCOc1ccc(NC(c2cc(C(C)(C)C)c(O)c(C(C)(C)C)c2)P(=O)(OCC)OCC)cc1 (stereo not shown) [Compound 9] | -31 | < 25 | more than 30% |  |  |
| CCOP(=O)(OCC)C(NCCc1ccc(Cl)cc1)c1cc(C(C)(C)C)c(O)c(C(C)(C)C)c1 (stereo not drawn) [Compound 17, Diethyl α-(3,5-di-tert-butyl-4-hydroxyphenyl)-N-[2-(4-chlorophenyl)ethyl]-aminomethylphosphonate] | -43 | 5.3 | more than 30% |  |  |
| CCOP(=O)(OCC)C(NCCCc1ccccc1)c1ccc(O)c([N+](=O)[O-])c1 (stereo not shown) [Compound 77] | -3 | > 25 |  |  |  |
| CCOP(=O)(OCC)C(NCc1ccccc1)c1ccc(O)c(OC)c1 (stereo not shown) [Compound 70] | -10 | > 25 |  |  |  |
| CCCCOP(=O)(OCCCC)C(c1cc(C(C)(C)C)c(O)c(C(C)(C)C)c1)N(CCCc1ccccc1)C(C)=O (stereo not shown) [Compound 63] | 4 | < 25 |  |  |  |
| CCOP(=O)(OCC)C(NC1CCCCC1)c1cc(C(C)(C)C)c(O)c(C(C)(C)C)c1 (stereo not shown) [Compound 65] | 7 | < 25 |  |  |  |
| CCOP(=O)(OCC)C(NC(c1ccccc1)c1ccccc1)c1cc(C(C)(C)C)c(O)c(C(C)(C)C)c1 (stereo not shown) [Compound 32] | -12 | < 25 |  |  |  |
| CCOP(=O)(OCC)C(Nc1ccc(O)c(C)c1)c1cc(C(C)(C)C)c(O)c(C(C)(C)C)c1 (stereo not shown) [Compound 5] | 2 | 1.3 |  |  |  |
| Cc1cc(C(C)(C)C)c(O)c(C(C)(C)C)c1 [BHT, 2,6-di-tert-butyl-4-methylphenol, reference compound] |  | 5 |  | no hypocholesterolemic activity |  |
| CCCCCc1ccc(NC(c2cc(C(C)(C)C)c(O)c(C(C)(C)C)c2)P(=O)(OCC)OCC)cc1 (stereo not shown) [Compound 10] | 11 | 2.9 |  |  |  |
| CCCOP(=O)(OCCC)C(c1cc(C(C)(C)C)c(O)c(C(C)(C)C)c1)N(CCCc1ccccc1)C(C)=O (stereo not shown) [Compound 61] | -43 | < 25 | more than 30% |  |  |

| SMILES | change in vivo at 180 mg/kg/day [1] [%] | IC50 [2] [µM] | decrease plasma cholesterol by ([1]; mouse, 10 days) | hypocholesterolemic activity (in words) ([1]; this model (mouse)) | Plasma Cholesterol (% Control) ([1]; 0.1% compound in food, 10 days, ca. 180 mg/kg daily, mouse) |
| --- | --- | --- | --- | --- | --- |
| CCOP(=O)(OCC)C(c1cc(C(C)(C)C)c(O)c(C(C)(C)C)c1)N(C)c1ccccc1 (stereo not shown) [Compound 50] | 5 | 2.9 |  |  |  |
| CCOP(=O)(OCC)C(Nc1cccnc1)c1cc(C(C)(C)C)c(O)c(C(C)(C)C)c1 (stereo not shown) [Compound 41] | -35 | 3.5 |  |  |  |
| CCOP(=O)(OCC)C(NCCc1ccccc1)c1cc(C(C)C)c(O)c(C(C)C)c1 (stereo not shown) [Compound 74] | -16 | 4.4 |  |  |  |
| CCOP(=O)(OCC)C(Nc1ccc2c(c1)CCC2)c1cc(C(C)(C)C)c(O)c(C(C)(C)C)c1 (stereo not shown) [Compound 47] | -2 | 2.7 |  |  |  |
| CCOP(=O)(OCC)C(NC1CC(C)(C)NC(C)(C)C1)c1cc(C(C)(C)C)c(O)c(C(C)(C)C)c1 (stereo not shown) [Compound 35] | -17 | > 25 |  |  |  |
| CCOP(=O)(OCC)C(NC1CCc2ccccc21)c1cc(C(C)(C)C)c(O)c(C(C)(C)C)c1 (stereo not shown) [Compound 46] | -8 | 3.8 |  |  |  |
| CCOP(=O)(OCC)C(NC(Cc1ccccc1)c1ccccc1)c1cc(C(C)(C)C)c(O)c(C(C)(C)C)c1 (stereo not shown) [Compound 33] | -14 | < 25 |  |  |  |
| CCCCOP(=O)(OCCCC)C(NCCCc1ccccc1)c1cc(C(C)(C)C)c(O)c(C(C)(C)C)c1 (stereo not shown) [Compound 25] | -4 | < 25 |  |  |  |
| CCCCOP(=O)(OCCCC)C(NCCc1ccc(Cl)cc1)c1cc(C(C)(C)C)c(O)c(C(C)(C)C)c1 (stereo not shown) [Compound 20] | -9 | 3.4 |  |  |  |
| CCOP(=O)(OCC)C(NCCCc1ccccc1)c1cc(C(C)(C)C)c(O)c(C(C)(C)C)c1 (stereo not drawn) [Compound 26, Hydrochloride salt of diethyl α-(3,5-di-tert-butyl-4-hydroxyphenyl),N-(3-phenylpropyl)-animomethylphosphonate] |  | < 25 |  |  | -11 |
| CCOP(=O)(OCC)C(Nc1ccccc1)c1cc(C(C)(C)C)c(O)c(C(C)(C)C)c1 (stereo not shown) [Compound 3] | -30 | 5.1 | more than 30% |  |  |
| CCOP(=O)(OCC)C(c1cc(C(C)(C)C)c(O)c(C(C)(C)C)c1)N(CCCc1ccccc1)C(C)=O (stereo not drawn) [Compound 60, Diethyl α-(3,5-di-tert-butyl-4-hydroxyphenyl)-N-acetyl-N-(3-phenylpropyl)-aminomethylphosphonate] | -49 | 2.6 | more than 30% |  |  |
| CCOP(=O)(OCC)C(Nc1ccc(Cl)cc1)c1cc(C(C)(C)C)c(O)c(C(C)(C)C)c1 (stereo not shown) [Compound 6] | -17 | < 25 |  |  |  |
| CC(C)OP(=O)(OC(C)C)C(NCCCc1ccccc1)c1cc(C(C)(C)C)c(O)c(C(C)(C)C)c1 (stereo not shown) [Compound 24] | -22 | < 25 |  |  |  |
| CCOP(=O)(OCC)C(NCCCc1ccccc1)c1cc(C(C)(C)C)c(OC)c(C(C)(C)C)c1 (stereo not drawn) [Compound 67, Diethyl α-(3.5-di-tert-butyl-4-methoxyphenyl)-N-(3-phenylpropyl)-aminomethylphosphonate] | -22 | > 25 |  |  |  |
| CCOP(=O)(OCC)C(NC(C)c1ccccc1)c1cc(C(C)(C)C)c(O)c(C(C)(C)C)c1 (stereo not drawn) [Compound 29, Diethyl α-(3,5-di-tert-butyl-4-hydroxyphenyl)-N-(1-phenylethyl)-aminomethyldiphosphonate] | -32 | 5.5 | more than 30% |  |  |
| CCOP(=O)(OCC)C(NCCCc1ccccc1)c1ccc(O)c(O)c1 (stereo not shown) [Compound 78] | -5 | < 25 |  |  |  |
| CCOP(=O)(OCC)C(NCCc1ccccc1)c1cc(C)c(O)c(C(C)(C)C)c1 (stereo not shown) [Compound 75] | -12 | 4.8 |  |  |  |
